Measured values as given in patent publication US6355799B1, “Substituted benzene compounds, process for their preparation, and herbicidal and defoliant compositions containing them” (ISK Americas Incorporated, priority 1997, dated 2002).

Columns and labels:
[1] = system: redroot pigweed (Amaranthus retroflexus, AMARE); assay: Pre-emerge test, greenhouse herbicide activity screening; format: in vivo; settings: pre-emerge, phytotoxicity rating 0-100 at 14 days after application
Summary of the method: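 Visual ratings on a 0-100 scale (0 no damage, 100 all plants dead) were taken at 14 days after treatment. Rates of 15-1000 g ai/ha in acetone, 187 l/ha, were sprayed onto soil one day after planting (pre-emerge) or onto 2-3 leaf plants with 0.25% v/v surfactant (post-emerge).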

[2] = system: soybean (Glycine max L., var. Pella 86, SOY); assay: Pre-emerge test, crop safety; format: in vivo; settings: crop damage, pre-emerge, phytotoxicity rating 0-100 at 14 days after application
Summary of the method: (§1)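 Fourteen days after spraying, crop and weed injury was graded visually from 0, no effect, to 100, every plant dead. Test substances were dissolved in acetone and applied at 15–1000 g ai/ha with a flat-fan nozzle. Application was either pre-emergence, one day after sowing, or post-emergence at the 2–3 leaf stage.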

[3] = system: field corn (Zea mays L., var. Dekalb 535, CORN); assay: Pre-emerge test, crop safety; format: in vivo; settings: crop damage, pre-emerge, phytotoxicity rating 0-100 at 14 days after application
Summary of the method: as §1

[4] = system: upland rice (Oryza sp., var. Tebonnet, RICE); assay: Pre-emerge test, crop safety; format: in vivo; settings: crop damage, pre-emerge, phytotoxicity rating 0-100 at 14 days after application
Summary of the method: as §1

[5] = system: ivyleaf morningglory (Ipomoea hederacea, IPOHE); assay: Post-emerge test, greenhouse herbicide activity screening; format: in vivo; settings: post-emerge, phytotoxicity rating 0-100 at 14 days after application
Summary of the method: (§2)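 Compounds in acetone were track-sprayed at 15–1000 g ai/ha: pre-emergence onto soil sown the previous day, then top-watered to incorporate and later bottom-watered; post-emergence onto 2–3 leaf plants with 0.25% v/v surfactant, bottom-watered only. Ratings on a 0–100 phytotoxicity scale were taken at day 14.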

[6] = system: johnsongrass (Sorghum halepense, SORHA); assay: as above; format: in vivo; settings: post-emerge, phytotoxicity rating 0-100 at 14 days after application
Summary of the method: as §2

[7] = system: velvetleaf (Abutilon theophrasti, ABUTH); assay: as above; format: in vivo; settings: post-emerge, phytotoxicity rating 0-100 at 14 days after application
Summary of the method: as §2

[8] = system: sicklepod (Cassia obtusifolia, CASOB); assay: as above; format: in vivo; settings: post-emerge, phytotoxicity rating 0-100 at 14 days after application
Summary of the method: as §2

[9] = system: barnyardgrass (Echinochloa crus-galli, ECHCG); assay: as above; format: in vivo; settings: post-emerge, phytotoxicity rating 0-100 at 14 days after application
Summary of the method: as §2

[10] = system: large crabgrass (Digitaria sanguinalis, DIGSA); assay: as above; format: in vivo; settings: post-emerge, phytotoxicity rating 0-100 at 14 days after application
Summary of the method: as §2

[11] = system: lambsquarters (Chenopodium album, CHEAL); assay: as above; format: in vivo; settings: post-emerge, phytotoxicity rating 0-100 at 14 days after application
Summary of the method: as §2

[12] = system: green foxtail (Setaria viridis, SETVI); assay: as above; format: in vivo; settings: post-emerge, phytotoxicity rating 0-100 at 14 days after application
Summary of the method: as §2

[13] = system: redroot pigweed (Amaranthus retroflexus, AMARE); assay: as above; format: in vivo; settings: post-emerge, phytotoxicity rating 0-100 at 14 days after application
Summary of the method: as §2

[14] = system: soybean (Glycine max L., var. Pella 86, SOY); assay: Post-emerge test, crop safety; format: in vivo; settings: crop damage rating 0-100 at 14 days after application
Summary of the method: (§3)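 Compounds in acetone were track-sprayed at 15-1000 g ai/ha (187 l/ha) on sandy loam pots: pre-emerge one day after seeding, post-emerge at 2-3 leaf stage with 0.25% v/v non-ionic surfactant. Phytotoxicity was rated 14 days later on a 0 (no damage) to 100 (complete death) scale.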

[15] = system: field corn (Zea mays L., var. Dekalb 535, CORN); assay: Post-emerge test, crop safety; format: in vivo; settings: post-emerge, crop damage rating 0-100 at 14 days after application
Summary of the method: as §3

[16] = system: upland rice (Oryza sp., var. Tebonnet, RICE); assay: Post-emerge test, crop safety; format: in vivo; settings: post-emerge, crop damage rating 0-100 at 14 days after application
Summary of the method: as §3

[17] = system: ivyleaf morningglory (Ipomoea hederacea, IPOHE); assay: Pre-emerge test, greenhouse herbicide activity screening; format: in vivo; settings: pre-emerge, phytotoxicity rating 0-100 at 14 days after application
Summary of the method: as §3

[18] = system: johnsongrass (Sorghum halepense, SORHA); assay: as above; format: in vivo; settings: pre-emerge, phytotoxicity rating 0-100 at 14 days after application
Summary of the method: as §3

[19] = system: velvetleaf (Abutilon theophrasti, ABUTH); assay: as above; format: in vivo; settings: pre-emerge, phytotoxicity rating 0-100 at 14 days after application
Summary of the method: as §3

[20] = system: sicklepod (Cassia obtusifolia, CASOB); assay: as above; format: in vivo; settings: pre-emerge, phytotoxicity rating 0-100 at 14 days after application
Summary of the method: as §3

[21] = system: barnyardgrass (Echinochloa crus-galli, ECHCG); assay: as above; format: in vivo; settings: pre-emerge, phytotoxicity rating 0-100 at 14 days after application
Summary of the method: as §3

[22] = system: large crabgrass (Digitaria sanguinalis, DIGSA); assay: as above; format: in vivo; settings: pre-emerge, phytotoxicity rating 0-100 at 14 days after application
Summary of the method: as §3

[23] = system: lambsquarters (Chenopodium album, CHEAL); assay: as above; format: in vivo; settings: pre-emerge, phytotoxicity rating 0-100 at 14 days after application
Summary of the method: as §3

[24] = system: green foxtail (Setaria viridis, SETVI); assay: as above; format: in vivo; settings: pre-emerge, phytotoxicity rating 0-100 at 14 days after application
Summary of the method: as §3

C#CCOc1c(Cl)cc(F)c(-n2nnn(CCCF)c2=O)c1N [Compound 5-17, 1-(2-amino-4-chloro-6-fluoro-3-propargyloxyphenyl)-4-(3-fluoroproyl)-1,4-dihydro-5-oxo-5H-tetrazole]
Pre-emerge Herbicidal Activity AMARE ([1]; rate 63 g ai/ha): 30
Pre-emerge Herbicidal Activity AMARE ([1]; rate 250 g ai/ha): 100
Pre-emerge Herbicidal Activity SOY ([2]; rate 63 g ai/ha): 0
Pre-emerge Herbicidal Activity SOY ([2]; rate 250 g ai/ha): 0
Pre-emerge Herbicidal Activity CORN ([3]; rate 63 g ai/ha): 0
Pre-emerge Herbicidal Activity CORN ([3]; rate 250 g ai/ha): 0
Pre-emerge Herbicidal Activity RICE ([4]; rate 63 g ai/ha): 20
Pre-emerge Herbicidal Activity RICE ([4]; rate 250 g ai/ha): 20
Post-emerge Herbicidal Activity IPOHE ([5]; 63 g ai/ha): 30
Post-emerge Herbicidal Activity IPOHE ([5]; 250 g ai/ha): 40
Post-emerge Herbicidal Activity SORHA ([6]; 63 g ai/ha): 0
Post-emerge Herbicidal Activity SORHA ([6]; 250 g ai/ha): 10
Post-emerge Herbicidal Activity ABUTH ([7]; 63 g ai/ha): 90
Post-emerge Herbicidal Activity ABUTH ([7]; 250 g ai/ha): 100
Post-emerge Herbicidal Activity CASOB ([8]; 63 g ai/ha): 0
Post-emerge Herbicidal Activity CASOB ([8]; 250 g ai/ha): 30
Post-emerge Herbicidal Activity ECHCG ([9]; 63 g ai/ha): 0
Post-emerge Herbicidal Activity ECHCG ([9]; 250 g ai/ha): 20
Post-emerge Herbicidal Activity DIGSA ([10]; 63 g ai/ha): 0
Post-emerge Herbicidal Activity DIGSA ([10]; 250 g ai/ha): 0
Post-emerge Herbicidal Activity CHEAL ([11]; 63 g ai/ha): 20
Post-emerge Herbicidal Activity CHEAL ([11]; 250 g ai/ha): 60
Post-emerge Herbicidal Activity SETVI ([12]; 63 g ai/ha): 0
Post-emerge Herbicidal Activity SETVI ([12]; 250 g ai/ha): 80
Post-emerge Herbicidal Activity AMARE ([13]; 63 g ai/ha): 0
Post-emerge Herbicidal Activity AMARE ([13]; 250 g ai/ha): 30
Post-emerge Herbicidal Activity SOY ([14]; 63 g ai/ha): 15
Post-emerge Herbicidal Activity SOY ([14]; 250 g ai/ha): 70
Post-emerge Herbicidal Activity CORN ([15]; 63 g ai/ha): 0
Post-emerge Herbicidal Activity CORN ([15]; 250 g ai/ha): 10
Post-emerge Herbicidal Activity RICE ([16]; 63 g ai/ha): 10
Post-emerge Herbicidal Activity RICE ([16]; 250 g ai/ha): 50
Pre-emerge Herbicidal Activity IPOHE ([17]; rate 63 g ai/ha): 0
Pre-emerge Herbicidal Activity IPOHE ([17]; rate 250 g ai/ha): 0
Pre-emerge Herbicidal Activity SORHA ([18]; rate 63 g ai/ha): 40
Pre-emerge Herbicidal Activity SORHA ([18]; rate 250 g ai/ha): 70
Pre-emerge Herbicidal Activity ABUTH ([19]; rate 63 g ai/ha): 40
Pre-emerge Herbicidal Activity ABUTH ([19]; rate 250 g ai/ha): 100
Pre-emerge Herbicidal Activity CASOB ([20]; rate 63 g ai/ha): 0
Pre-emerge Herbicidal Activity CASOB ([20]; rate 250 g ai/ha): 30
Pre-emerge Herbicidal Activity ECHCG ([21]; rate 63 g ai/ha): 0
Pre-emerge Herbicidal Activity ECHCG ([21]; rate 250 g ai/ha): 40
Pre-emerge Herbicidal Activity DIGSA ([22]; rate 63 g ai/ha): 30
Pre-emerge Herbicidal Activity DIGSA ([22]; rate 250 g ai/ha): 50
Pre-emerge Herbicidal Activity CHEAL ([23]; rate 63 g ai/ha): 70
Pre-emerge Herbicidal Activity CHEAL ([23]; rate 250 g ai/ha): 100
Pre-emerge Herbicidal Activity SETVI ([24]; rate 63 g ai/ha): 95
Pre-emerge Herbicidal Activity SETVI ([24]; rate 250 g ai/ha): 100

COc1c(Cl)cc(F)c(-n2ncc(C(F)(F)F)cc2=O)c1N [Compound 11-4, 2-(2-amino-4-chloro-6-fluoro-3-methoxyphenyl)-5-trifluoromethylpyridazin-3-one]
melting point: 156 to 157 °C
